Measurements published in BindingDB's records for doi:10.1016/s0960-894x(02)00489-4 (University of Antwerp (Uia), 2002).
Where a SMILES comes first, the peptide text is derived from it.

Target: T1, Glutathionylspermidine synthase (Crithidia fasciculata, UniProt P90518)
T1 sequence (P90518 whole entry): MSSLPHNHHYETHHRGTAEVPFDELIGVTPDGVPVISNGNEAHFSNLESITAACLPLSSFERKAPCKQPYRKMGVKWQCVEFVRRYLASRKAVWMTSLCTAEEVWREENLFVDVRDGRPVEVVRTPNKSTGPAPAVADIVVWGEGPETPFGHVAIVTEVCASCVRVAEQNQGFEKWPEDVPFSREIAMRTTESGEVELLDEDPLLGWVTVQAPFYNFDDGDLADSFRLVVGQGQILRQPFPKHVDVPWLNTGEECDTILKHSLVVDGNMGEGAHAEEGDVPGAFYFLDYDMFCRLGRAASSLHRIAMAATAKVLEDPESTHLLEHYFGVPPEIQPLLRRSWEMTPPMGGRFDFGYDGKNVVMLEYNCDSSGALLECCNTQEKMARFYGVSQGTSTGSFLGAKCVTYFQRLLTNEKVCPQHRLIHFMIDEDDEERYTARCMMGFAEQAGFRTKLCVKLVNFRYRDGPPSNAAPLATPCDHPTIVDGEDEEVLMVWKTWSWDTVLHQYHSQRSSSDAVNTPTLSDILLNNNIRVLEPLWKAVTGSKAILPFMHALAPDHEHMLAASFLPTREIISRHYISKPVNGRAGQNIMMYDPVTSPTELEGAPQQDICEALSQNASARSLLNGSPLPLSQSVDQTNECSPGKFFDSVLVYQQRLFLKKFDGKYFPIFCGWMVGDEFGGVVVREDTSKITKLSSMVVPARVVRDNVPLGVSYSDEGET
Experiment: Inhibitory activity against amidase free Glutathionylspermidine Synthetase mutant (C79A)

SMILES: CC(C)C[C@H](NC(=O)CC[C@H](N)C(=O)O)C(=O)NCC(N)=O [2-Amino-4-[1-(carbamoylmethyl-carbamoyl)-3-methyl-butylcarbamoyl]-butyric acid] (HELM PEPTIDE1{[gGlu].L.G.[am]}$$$$V2.0)
- IC50: > 2 µM
